Assay results from ChEMBL document CHEMBL1129180, “Phosphoramidate derivatives of 2,3-didehydro-2,3-dideoxyadenosine [d4A] have markedly improved anti-HIV potency and selectivity” (Bioorg Med Chem Lett, 1996).
Converted amounts (≈) assume the structure as drawn.

What was measured:
[1] = Compound was evaluated cytotoxicity against moloney sarcoma virus (MSV) infected C3H cell cultures.; type: functional; settings: Mus musculus
[2] = test system: CCRF-CEM; assay: Compound was evaluated for cytotoxic activity against CEM cells.; type: functional; settings: Homo sapiens
[3] = Compound was evaluated minimum inhibitory concentration against moloney sarcoma virus (MSV) infected C3H cell cultures.; type: functional; settings: Mus musculus
[4] = Ratio of CC50/EC50 was calculated; type: functional
[5] = test system: CCRF-CEM; assay: Compound was evaluated for antiviral activity against HIV-2 (ROD) infected CEM cells.; type: functional, cell-based; settings: Homo sapiens
[6] = test system: CCRF-CEM; assay: Compound was evaluated for antiviral activity against HIV-1 (IIIB) infected CEM cells.; type: functional, cell-based; settings: Homo sapiens

| Structure (SMILES) | CC50 [1] | CC50 [2] | MIC [3] | Selectivity index [4] | EC50 [5] | EC50 [6] |
| --- | --- | --- | --- | --- | --- | --- |
| Cc1cn([C@H]2C[C@H](N=[N+]=[N-])[C@@H](CO)O2)c(=O)[nH]c1=O [ZIDOVUDINE] | > 20 µM | > 100 µM | 0.02 µM (≈ 0.00534 µg/mL) | > 20000 | – | – |
| COC(=O)C(C)NP(=O)(OCC1C=CC(n2cnc3c(N)ncnc32)O1)Oc1ccccc1 (configuration not stated) | > 100 µM | 3.8 µM | 9.4 µM (≈ 4.46 µg/mL) | 633 | 0.018 µM | 0.006 µM |
| Nc1ncnc2c1ncn2[C@H]1C=C[C@@H](CO)O1 | > 100 µM | 91 µM | 31 µM (≈ 7.23 µg/mL) | 4.5 | 20 µM | 20 µM |
| CC(NP(=O)(OCC1C=CC(n2cnc3c(N)ncnc32)O1)Oc1ccccc1)C(=O)OCc1ccccc1 (configuration not stated) | > 4 µM | 1.9 µM | 0.2 µM (≈ 0.11 µg/mL) | 237 | 0.008 µM | 0.008 µM |
